Measured values as given in patent publication US5506252A, “Substituted N-heteroaryl and N-aryl-1,2-diaminocyclobutene-3,4-diones” (American Home Products Corporation, priority 1994, dated 1996).
pIC50: −log10 of the molar value.

System: Isolated Rat Bladder Strips
Experiment: Inhibition of contractions in isolated rat bladder strips (smooth muscle relaxing activity, KCl-enhanced contractions)
Assay type: cell-based, Sprague-Dawley rats
Conditions: 0.5 h, 15 mM KCl added, 30 minute challenge; for pIC50: read-out: IC50 (concentration required to elicit 50% inhibition of pre-drug contractile activity); for inhibition at 30 µM: read-out: Inhibition of Force (%) at (x) μM
Excerpt: The smooth muscle relaxing activity of the compounds of this invention was established in accordance with standard pharmaceutically accepted test procedures in representative compounds as follows:
Sprague-Dawley rats (150-200 g) are rendered unconscious by CO2 asphyxiation and then euthanized by cervical dislocation. The bladder is removed into warm (37 deg. C.) physiological salt solution (PSS) of the following composition (mM): NaCl, 118.4; KCl, 4.7; CaCl2, 2.5; […]; NaHCO3, 24.9; KH2 PO4, 1.2; glucose, 11.1; EDTA, 0.023; gassed with […]; pH 7.4. The bladder is opened and then cut into strips 1-2 mm in width and 7-10 mm in length. The strips are subsequently suspended in a 10 mL tissue bath under an initial resting tension of 1.5 g. The strips are held in place by two surgical clips one of which is attached to a fixed hook while the other is attached to an isometric force transducer. […] The carbachol is then washed out and the tissue allowed to relax to its resting level of activity. Following one further 30 minute period of recovery, an additional 15 mM KCl are introduced into the tissue bath. This increase in KCl concentration results in a large increase in the amplitude of spontaneous contractions (and initiation of contractions in previously quiescent strips) superimposed upon a small increase in basal tone. Following stabilization of this enhanced level of contractile activity, incremental increases in the concentration of test compound or vehicle are introduced into the tissue bath. Contractile activity is measured for each compound or vehicle concentration during the last minute of a 30 minute challenge.
The isometric force developed by the bladder strips is measured using a […] to elicit 50% inhibition of pre-drug contractile activity (IC50 concentration) is calculated from this concentration-response curve.

| SMILES | pIC50 | inhibition at 30 µM |
| --- | --- | --- |
| CC(C)(C)Nc1c(Nc2ccc3cn[nH]c3c2)c(=O)c1=O [Example 19, 3-Tert-butylamino-4-(1H-indazol-6-ylamino)-cyclobut-3-ene-1,2-dione] | 5.20 |  |
| Nc1c(Nc2cccc3cnccc23)c(=O)c1=O [Example 9, 3-Amino-4-(isoquinolin-5-ylamino)-cyclobut-3-ene-1,2-dione] |  | 43% |
| CC(C)(C)Nc1c(Nc2cnc3ccccc3c2)c(=O)c1=O [Example 14, 3-Tert-butylamino-4-(quinolin-3-ylamino)-cyclobut-3-ene-1,2-dione] |  | 51% |
| CCc1cc(C#N)ccc1Nc1c(N[C@H](C)C(C)(C)C)c(=O)c1=O [Example 24, (+)-(R )-4-[3,4-Dioxo-2-(1,2,2-trimethyl-propylamino)-cyclobut-1-enylamino]-3-ethyl-benzonitrile] | 7.68 |  |
| Nc1c(Nc2cccnc2)c(=O)c1=O [Example 6] |  | 31% |
| CC(C)(C)Nc1c(Nc2cccc3cnccc23)c(=O)c1=O [Example 8, 3-Tert-butylamino-4-(isoquinolin-5-ylamino)-cyclobut-3-ene-1,2-dione] | 5.74 |  |
| O=c1c(Nc2ccncc2)c(N[C@H]2C[C@@H]3CC[C@H]2C3)c1=O (relative stereo) [Example 2, (Exo)-3-(bicyclo[2.2.1]hept-2-ylamino)-4-(pyridin-4-ylamino)-cyclobut-3,-ene-1,2-dione] | 4.80 |  |

Further lines, with some results ahead:

| pIC50 | SMILES | inhibition at 30 µM |
| --- | --- | --- |
| 5.10 | CC(Nc1c(Nc2cccc3cccnc23)c(=O)c1=O)C(C)(C)C (stereo not shown) [Example 10, 3-(Quinolin-8-ylamino)-4-(1,2,2-trimethyl-propylamino)-cyclobut-3-ene-1,2-dione] |  |
| 5.55 | CC(C)(C)Nc1c(Nc2cccnc2)c(=O)c1=O [Example 7, 3-Tert-butylamino-4-(pyridin-3-ylamino)-cyclobut-3-ene-1,2-dione] |  |
| 5.71 | CC(Nc1c(Nc2cccnc2)c(=O)c1=O)C(C)(C)C (stereo not shown) [Example 3, 3-(Pyridin-3-ylamino)-4-(1,2,2-trimethyl-propylamino)-cyclobut-3-ene-1,2-dione] |  |
| 6.28 | CC(Nc1c(Nc2ccc(C#N)cc2)c(=O)c1=O)C(C)(C)C (stereo not shown) [Example 21, 4-[3,4-Dioxo-2-(1,2,2-trimethyl-propylamino)-cyclobut-1-enylamino]-benzonitrile] |  |
| 6.54 | COc1cc(C#N)ccc1Nc1c(N[C@H](C)C(C)(C)C)c(=O)c1=O [Example 25, (+)-(R)-4-[3,4-Dioxo-2-(1,2,2-trimethyl-propylamino)-cyclobut-1-enylamino]-3-methoxy-benzonitrile] |  |
| 5.87 | CC(Nc1c(Nc2ccncc2)c(=O)c1=O)C(C)(C)C (stereo not shown) [Example 1, 3-(Pyridin-4-ylamino)-4-(1,2,2-trimethyl-propylamino)-cyclobut-3-ene-1,2-dione] |  |
